From paper PMC7714403 (JCI Insight, 2020) come the findings set out here.

One data set relates to HS5 human MSCs. Kind of data set: MTT viability assay of stromal cells. It is filed as cell-based. The method, then:
Cell viability of primary samples
HS5-GFP human bone marrow stromal cells were plated and cultured for 72 hours to near confluence.
MOLM13 cells were then seeded onto HS5-GFP cells to establish a co-culture. Twenty-four hours later, cells were treated with increasing concentrations of drug for an additional 72 hours. MOLM13 and HS5-GFP cells were then separated and MTT assay s were performed for cell viability assessment of each cell population.
For murine or human primary AML cells, 100,000 cells/well were plated in a 96-well plate and treated with increasing concentrations of drug. Cell viability, via trypan blue, was measured every 24 hours. If the viability fell below 50% or at 72 hours of treatment, whichever came earlier, cell viability of each plate was measured via CellTiter-Glo. Primary human AML cells were obtained from the OSUCCC Leukemia Tissue Bank Shared […]
For primary human fibroblasts, cells were plated at 10,000 cells/well in a 96-well plate and cultured for 24 hours. After 24 hours, cells were treated with drug for 72 hours. A MTT assay was performed to assess cell […]
Primary AML samples were analyzed by targeted gene sequencing of 80 genes, as previously described (1). Samples were pooled and analyzed on a MiSeq system using the Illuminia MiSeq Reagent Kit v3. Ill umina Isis Banded Smith Waterman aligner and hg19 genome were used to align the sequences. […]
Background: Tetrazolium dyes change colour on reduction, which living cells bring about.

The test system of data set [1] is MV4-11, MOLM13, and MOLM13-RES cells. The data set can be described thus: Cell cycle analysis. To be noted: 20 nM, 12 hours. The format is cell-based, human. The method, then:
(§1) Luc+ or MOLM13-Res -Luc+ cells, 0.5 million OCI-AML3 -Luc+ cells, and 10,000 Ba/F3-FLT3-ITD/F691L-GFP+ cells. Weekly tumor engraftment of cell line xenograft models were assessed after injection of D-luciferin (150mg/kg i.p.; Gold Biotechnology, Inc, St. Louis, MO) on Xenogen IVIS-200 imaging system (Perkin Elmer, Waltham, MA) or GFP monitoring by peripheral blood via BD LSR II flow cytometer (BD Biosciences, San Jose, CA). Signal intensity was analyzed using Living Image Software (PerkinElmer) or FlowJo v10.0.08 software (FlowJo, LLC, Ashland, OR). Mice were randomized to treatment groups based on signal intensity and leukemia burden. Drug treatments were started on days 3, 7, or 13 after cell injection in OCI-AML3, MOLM13, and MOLM13-Res xenografts, respectively. In murine AML transplantation model, 1 million FLT3-ITD+/-/IDH2-R140Q+/- splenocytes (in house colony) were intravenously injected in male NSG mice. On day 7, mice were started on drug treatments. […]
(§2) At indicated time points, cells were collected and washed with PBS. CD11b expression was measured using anti-CD11b -APC antibody (BioLegend, San Diego, CA). […] CD11b expression and apoptosis were measured by BD LSR II flow cytometer. […]
(§3) with DAPI in 0.1% Triton-X (ThermoFisher Scientific) PBS for 30 minutes at room temperature and protected from light. The DNA content was determined using a BD LSR II flow cytometer. […]

For the next data set, the system named is OCI-AML3 cells. The data set can be described thus: Cell cycle analysis. The format is cell-based, human. Particulars: 20 nM, 12–24 hours. On the procedure: as §1, §2, §3
The target in a further data set is FRAP (Homo sapiens, UniProt P42345). The data set can be described thus: KiNativ, OCI cells live cell. It is filed as cell-based. Particulars: 2 h, labeling site ATP, peptide […].
For a further data set, the target named is MLK4 (Homo sapiens, UniProt Q5TCX8). The data set can be described thus: KiNativ, OCI cells live cell. It is filed as cell-based. To be noted: 2 h, labeling site Lys2, peptide […].
Data set [2] deals with RSK1 domain1, RSK2 domain1, RSK3 domain1. Kind of data set: KiNativ, OCI cells live cell. The format is cell-based, human. Particulars: labeling site Lys2, peptide DLKPENILLDEEGHIK
The target in a further data set is T1, RSK3 domain1 (Homo sapiens, UniProt Q15349).
T1 construct: RSK3 domain1
Kind of data set: KiNativ, OCI cells live cell. The format is cell-based. Particulars: 2 h, labeling site Lys2, peptide […].

Sequence of MLK4 (Q5TCX8 whole entry, the tested form may be a part): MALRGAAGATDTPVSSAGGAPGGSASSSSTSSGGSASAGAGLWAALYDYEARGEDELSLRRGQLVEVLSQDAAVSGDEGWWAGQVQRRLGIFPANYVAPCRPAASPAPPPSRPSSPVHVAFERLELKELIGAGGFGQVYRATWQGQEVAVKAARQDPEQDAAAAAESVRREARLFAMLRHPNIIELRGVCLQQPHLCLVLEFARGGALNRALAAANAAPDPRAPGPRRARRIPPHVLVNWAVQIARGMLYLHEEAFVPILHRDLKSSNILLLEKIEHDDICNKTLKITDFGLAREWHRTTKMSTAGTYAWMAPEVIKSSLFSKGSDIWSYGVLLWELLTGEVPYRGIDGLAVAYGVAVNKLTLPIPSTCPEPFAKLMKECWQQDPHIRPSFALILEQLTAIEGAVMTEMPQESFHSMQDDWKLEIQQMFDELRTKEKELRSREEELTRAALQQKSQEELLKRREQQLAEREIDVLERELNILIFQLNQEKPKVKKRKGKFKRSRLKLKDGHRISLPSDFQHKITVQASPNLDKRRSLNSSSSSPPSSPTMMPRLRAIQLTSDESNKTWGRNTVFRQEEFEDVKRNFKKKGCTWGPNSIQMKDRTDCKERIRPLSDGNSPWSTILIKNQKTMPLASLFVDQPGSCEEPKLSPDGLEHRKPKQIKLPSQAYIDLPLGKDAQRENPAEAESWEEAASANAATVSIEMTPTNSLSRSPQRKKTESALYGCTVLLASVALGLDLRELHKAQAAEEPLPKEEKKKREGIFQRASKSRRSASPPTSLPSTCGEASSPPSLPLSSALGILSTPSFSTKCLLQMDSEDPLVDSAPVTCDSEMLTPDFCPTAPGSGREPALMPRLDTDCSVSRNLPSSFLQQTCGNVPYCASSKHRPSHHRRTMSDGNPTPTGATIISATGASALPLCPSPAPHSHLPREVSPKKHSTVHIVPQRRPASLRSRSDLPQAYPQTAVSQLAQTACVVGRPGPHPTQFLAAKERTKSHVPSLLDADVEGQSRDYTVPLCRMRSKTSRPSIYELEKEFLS
T1 sequence (Q15349 whole entry, the tested form may be a part): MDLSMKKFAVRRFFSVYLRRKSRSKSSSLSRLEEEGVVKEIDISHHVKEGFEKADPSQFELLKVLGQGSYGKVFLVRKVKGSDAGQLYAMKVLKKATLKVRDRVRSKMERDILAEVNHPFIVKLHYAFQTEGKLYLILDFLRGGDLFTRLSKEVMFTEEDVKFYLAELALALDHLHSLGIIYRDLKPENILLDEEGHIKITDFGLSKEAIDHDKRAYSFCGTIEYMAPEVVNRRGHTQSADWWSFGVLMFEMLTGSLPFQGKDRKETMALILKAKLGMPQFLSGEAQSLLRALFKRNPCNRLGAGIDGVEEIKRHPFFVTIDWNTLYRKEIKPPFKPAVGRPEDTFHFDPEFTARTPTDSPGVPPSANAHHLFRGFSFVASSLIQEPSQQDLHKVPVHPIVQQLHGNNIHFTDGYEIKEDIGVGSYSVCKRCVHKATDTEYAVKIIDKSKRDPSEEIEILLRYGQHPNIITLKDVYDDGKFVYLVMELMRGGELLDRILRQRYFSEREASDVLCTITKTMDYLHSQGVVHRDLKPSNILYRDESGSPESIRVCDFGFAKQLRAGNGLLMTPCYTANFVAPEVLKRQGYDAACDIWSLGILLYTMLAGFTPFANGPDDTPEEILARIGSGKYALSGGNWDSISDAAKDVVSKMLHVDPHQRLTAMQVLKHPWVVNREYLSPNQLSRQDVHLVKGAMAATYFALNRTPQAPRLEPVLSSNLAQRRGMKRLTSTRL

With `CN1CCN(Cc2ccc(Nc3ncc(Cl)c(Nc4ccccc4S(=O)(=O)N(C)C)n3)cc2)CC1` [TP-0903], in the data set on HS5 human MSCs, the “Concentrations not cytotoxic to HS5 human MSCs” value was less than 250 nM. The Cell cycle result (in data set [1]; with OCI-AML3 cells) was “G2-M cell cycle arrest” each time. The inhibition at 0.1 µM at FRAP was determined as 7.9%; at MLK4 it was 12.7%; against RSK3 domain1, 53.5%. Further, in data set [2], the Inhibition came to 54.4%.

For orientation: inhibition means the drop in the measured response relative to a control, in per cent. A low value points to a weak effect. Broadly, the Inhibition is the relative decrease from the control value, in per cent. Low readings indicate a response near the control, high ones a response far below the control.
